From patent publication US7205295B2, “Benzoxazin-3-ones and derivatives thereof as therapeutic agents” (Warner-Lambert Company LLC, priority 2002, dated 2007)
pIC50: −log10 of the molar value.

Molecular target: T1, PI3Kγ (p101/p110γ protein) (Homo sapiens, UniProt P48736)
T1 construct: HA; made in house; host or cells: Spodoptera frugiperda (Sf9) cells, baculovirus co-infection
Test: PI3Kγ In Vitro Kinase Assay
Assay type: biochemical
Settings: purified recombinant p101/p110γ with G protein β1/γ2 subunits; 20 μM ATP, 25 μM PIP2; 20 minutes at room temperature
Method in brief: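 Sf9-expressed, purified human p101/p110γ (2.7 nM) was activated by Gβ1/γ2 (57.7 nM) and reacted with 20 μM ATP plus [γ-32P]ATP on PIP2 (25 μM)/PE (300 μM) micelles with 10 mM MgCl2 in HEPES buffer. Reactions ran 20 min at room temperature. Filter-captured radiolabeled PIP3 was counted by scintillation.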

T1 sequence (P48736 whole entry, species assumed): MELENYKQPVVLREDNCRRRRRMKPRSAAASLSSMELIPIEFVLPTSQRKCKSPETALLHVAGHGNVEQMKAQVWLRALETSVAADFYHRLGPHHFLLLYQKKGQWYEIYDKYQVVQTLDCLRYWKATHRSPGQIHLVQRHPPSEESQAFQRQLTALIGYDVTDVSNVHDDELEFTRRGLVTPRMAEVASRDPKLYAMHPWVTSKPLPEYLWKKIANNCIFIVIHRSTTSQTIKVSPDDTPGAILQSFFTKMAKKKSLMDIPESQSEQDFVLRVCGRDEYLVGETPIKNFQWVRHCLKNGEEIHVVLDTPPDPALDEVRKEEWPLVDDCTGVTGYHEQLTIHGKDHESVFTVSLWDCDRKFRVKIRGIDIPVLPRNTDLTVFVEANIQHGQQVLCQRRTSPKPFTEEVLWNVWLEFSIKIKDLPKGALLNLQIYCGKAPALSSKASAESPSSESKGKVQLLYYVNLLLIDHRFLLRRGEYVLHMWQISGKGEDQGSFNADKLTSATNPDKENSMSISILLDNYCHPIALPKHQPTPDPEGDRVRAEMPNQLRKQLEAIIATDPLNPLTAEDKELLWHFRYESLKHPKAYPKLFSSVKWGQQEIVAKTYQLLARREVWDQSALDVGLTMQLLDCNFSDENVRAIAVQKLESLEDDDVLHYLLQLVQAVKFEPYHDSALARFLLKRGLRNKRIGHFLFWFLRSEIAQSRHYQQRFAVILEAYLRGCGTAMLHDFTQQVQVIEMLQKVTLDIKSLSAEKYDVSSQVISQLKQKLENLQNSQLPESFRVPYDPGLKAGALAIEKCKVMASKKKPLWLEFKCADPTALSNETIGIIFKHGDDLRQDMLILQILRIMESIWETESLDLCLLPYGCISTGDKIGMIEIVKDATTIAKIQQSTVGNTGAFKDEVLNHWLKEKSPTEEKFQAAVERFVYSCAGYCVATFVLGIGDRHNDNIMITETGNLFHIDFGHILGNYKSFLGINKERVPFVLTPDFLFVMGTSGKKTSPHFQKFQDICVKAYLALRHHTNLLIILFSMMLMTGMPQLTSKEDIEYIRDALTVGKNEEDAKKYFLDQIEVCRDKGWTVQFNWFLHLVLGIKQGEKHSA
T1 sequence (Q8WYR1 whole entry partner, species assumed): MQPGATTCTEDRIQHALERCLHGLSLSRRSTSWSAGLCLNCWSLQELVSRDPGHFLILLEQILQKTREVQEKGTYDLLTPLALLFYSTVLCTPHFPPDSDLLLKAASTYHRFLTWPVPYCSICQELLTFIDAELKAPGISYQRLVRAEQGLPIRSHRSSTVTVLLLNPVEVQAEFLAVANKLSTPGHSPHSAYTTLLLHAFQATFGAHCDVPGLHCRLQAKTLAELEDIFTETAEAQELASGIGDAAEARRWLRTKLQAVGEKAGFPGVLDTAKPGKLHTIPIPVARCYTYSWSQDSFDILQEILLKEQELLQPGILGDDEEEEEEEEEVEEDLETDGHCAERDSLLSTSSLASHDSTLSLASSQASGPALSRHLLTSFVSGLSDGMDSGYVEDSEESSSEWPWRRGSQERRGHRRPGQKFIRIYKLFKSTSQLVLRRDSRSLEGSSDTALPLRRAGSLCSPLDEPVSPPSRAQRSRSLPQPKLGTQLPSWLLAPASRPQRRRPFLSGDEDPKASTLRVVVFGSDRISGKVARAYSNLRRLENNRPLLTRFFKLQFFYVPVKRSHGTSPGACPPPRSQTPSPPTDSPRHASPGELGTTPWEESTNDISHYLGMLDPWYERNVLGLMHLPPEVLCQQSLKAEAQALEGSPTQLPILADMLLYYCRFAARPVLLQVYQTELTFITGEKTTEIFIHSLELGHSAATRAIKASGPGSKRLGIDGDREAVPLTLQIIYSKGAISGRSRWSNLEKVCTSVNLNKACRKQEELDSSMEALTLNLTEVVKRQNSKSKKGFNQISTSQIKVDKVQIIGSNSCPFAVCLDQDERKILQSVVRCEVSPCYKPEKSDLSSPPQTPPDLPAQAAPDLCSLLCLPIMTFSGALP

Compound	pIC50
O=C1NC(=O)C(=Cc2ccc3c(c2)N(Cc2ccc(CN4CCC5(CCCCC5)CC4)cc2)C(=O)CO3)S1 [Example 239, 5-{4-[4-(3-Aza-spiro[5.5]undec-3-ylmethyl)-benzyl]-3-oxo-3,4-dihydro-2H-benzo[1,4]oxazin-6-ylmethylene}-thiazolidine-2,4-dione]	7.41
CCOC(=O)N1CCN(Cc2ccc(CN3C(=O)COc4ccc(C=C5SC(=S)NC5=O)cc43)cc2)CC1 [Example 241, 4-{4-[3-Oxo-6-(4-oxo-2-thioxo-thiazolidin-5-ylidenemethyl)-2,3-dihydro-benzo[1,4]oxazin-4-ylmethyl]-benzyl}-piperazine-1-carboxylic acid ethyl ester]	7.28
O=C1NC(=S)SC1=Cc1cc(F)c2c(c1)N(CCCN1CCCCC1)C(=O)CO2 [Example 243]	6.74
CC1CC(C)CN(CCCN2C(=O)COc3c(F)cc(C=C4SC(=S)NC4=O)cc32)C1 (stereo not drawn) [Example 244, 4-[3-(3,5-Dimethyl-piperidin-1-yl)-propyl]-8-fluoro-6-(4-oxo-2-thioxo-thiazolidin-5-ylidenemethyl)-4H-benzo[1,4]oxazin-3-one]	6.73
CC(C)N(CCCN1C(=O)COc2c(F)cc(C=C3SC(=S)NC3=O)cc21)C(C)C [Example 245, 4-(3-Diisopropylamino-propyl)-8-fluoro-6-(4-oxo-2-thioxo-thiazolidin-5-ylidenemethyl)-4H-benzo[1,4]oxazin-3-one]	6.73
CC(C)(C)c1cc(CN2C(=O)COc3ccc(C=C4OC(=S)NC4=O)cc32)cc(C(C)(C)C)c1 [Example 247, 4-(3,5-Di-tert-butyl-benzyl)-6-(4-oxo-2-thioxo-oxazolidin-5-ylidenemethyl)-4H-1,4-benzoxazin-3-one]	8.00
CC(C)(C)C1CC(CN2C(=O)COc3ccc(C=C4SC(=S)NC4=O)cc32)CC(C(C)(C)C)C1 (stereo not drawn) [Example 250, 4-(3,5-Di-tert-butyl-cyclohexylmethyl)-6-(4-oxo-2-thioxo-thiazolidin-5-ylidenemethyl)-4H-1,4-benzoxazin-3-one]	6.76
Cc1cc(CN2CCN(C)CC2)cc(CN2C(=O)COc3ccc(C=C4SC(=S)NC4=O)cc32)c1 [Example 255, 4-[3-Methyl-5-(4-methyl-piperazin-1-ylmethyl)-benzyl]-6-(4-oxo-2-thioxo-thiazolidin-5-ylidenemethyl)-4H-1,4-benzoxazin-3-one]	7.82
O=C1NC(=O)C(=Cc2ccc3c(c2)N(CC2CCCCC2)C(=O)CO3)S1 [Example 258, 5-(4-Cyclohexylmethyl-3-oxo-3,4-dihydro-2H-1,4-benzoxazin-6-ylmethylene)-thiazolidine-2,4-dione]	8.40
O=C1NC(=S)OC1=Cc1ccc2c(c1)N(CC1CCCCC1)C(=O)CO2 [Example 261, 4-Cyclohexylmethyl-6-(4-oxo-2-thioxo-oxazolidin-5-ylidenemethyl)-4H-1,4-benzoxazin-3-one]	8.70
C/C(=C1/SC(=S)NC1=O)c1ccc2c(c1)N(Cc1ccccc1)C(=O)CO2 [Example 266, 4-Benzyl-6-{1-[4-oxo-2-thioxo-thiazolidin-(5Z)-ylidene]-ethyl}-4H-benzo[1,4]oxazin-3-one]	5.79
O=C1NC(=S)S/C1=C\c1cnc2c(c1)N(CCc1ccccc1)C(=O)CO2 [Example 267, 7-[4-Oxo-2-thioxo-thiazolidin-(5Z)-ylidenemethyl]-1-phenethyl-1H-pyrido[2,3-b][1,4]oxazin-2-one]	6.34
C/C(=C1/SC(=S)NC1=O)c1ccc2c(c1)NC(=O)CO2 [Example 268, 6-{1-[4-Oxo-2-thioxo-thiazolidin-(5Z)-ylidene]-ethyl}-4H-benzo[1,4]oxazin-3-one]	5.33
O=C1NC(=S)O/C1=C\c1ccc2c(c1)N(Cc1cc(C(F)(F)F)cc(C(F)(F)F)c1)C(=O)CO2 [Example 271, 4-(3,5-Bis-trifluoromethyl-benzyl)-6-[4-oxo-2-thioxo-oxazolidin-(5Z)-ylidenemethyl]-4H-benzo[1,4]oxazin-3-one]	7.00

Further lines, results first:

pIC50	Compound
7.49	CCOC(=O)N1CCN(Cc2ccc(CN3C(=O)COc4ccc(C=C5SC(=O)NC5=O)cc43)cc2)CC1 [Example 240, 4-{4-[6-(2,4-Dioxo-thiazolidin-5-ylidenemethyl)-3-oxo-2,3-dihydro-1,4-benzoxazin-4-ylmethyl]-benzyl}-piperazine-1-carboxylic acid ethyl ester]
8.52	O=C1NC(=O)C(=Cc2ccc3c(c2)N(Cc2ccc(Cl)c(Cl)c2)C(=O)CO3)S1 [Example 246, 5-[4-(3,4-Dichloro-benzyl)-3-oxo-3,4-dihydro-2H-benzo[1,4]oxazin-6-ylmethylene]-thiazolidine-2,4-dione]
7.68	CC(=O)Oc1ccc(CN2C(=O)COc3ccc(C=C4SC(=S)NC4=O)cc32)cc1 [Example 248, Acetic acid 4-[3-oxo-6-(4-oxo-2-thioxo-thiazolidin-5-ylidenemethyl)-2,3-dihydro-1,4-benzoxazin-4-ylmethyl]-phenyl ester]
8.10	O=C1NC(=O)C(=Cc2ccc3c(c2)N(Cc2ccc(OCc4ccccc4)cc2)C(=O)CO3)S1 [Example 249, 5-[4-(4-Benzyloxy-benzyl)-3-oxo-3,4-dihydro-2H-1,4-benzoxazin-6-ylmethylene]-thiazolidine-2,4-dione]
7.60	Cc1cc(CN2CCN(C)CC2)cc(CN2C(=O)COc3ccc(C=C4SC(=O)NC4=O)cc32)c1 [Example 251, 5-{4-[3-Methyl-5-(4-methyl-piperazin-1-ylmethyl)-benzyl]-3-oxo-3,4-dihydro-2H-1,4-benzoxazin-6-ylmethylene}-thiazolidine-2,4-dione]
7.68	CC(C)S(=O)(=O)c1cccc(CN2C(=O)COc3ccc(C=C4SC(=O)NC4=O)cc32)c1 [Example 252, 5-{3-Oxo-4-[3-(propane-2-sulfonyl)-benzyl]-3,4-dihydro-2H-1,4-benzoxazin-6-ylmethylene}-thiazolidine-2,4-dione]
7.80	CC(C)S(=O)(=O)c1cccc(CN2C(=O)COc3ccc(C=C4SC(=S)NC4=O)cc32)c1 [Example 253, 6-(4-Oxo-2-thioxo-thiazolidin-5-ylidenemethyl)-4-[3-(propane-2-sulfonyl)-benzyl]-4H-1,4-benzoxazin-3-one]
8.00	CC(C)Sc1cccc(CN2C(=O)COc3ccc(C=C4SC(=S)NC4=O)cc32)c1 [Example 254, 4-(3-Isopropylsulfanyl-benzyl)-6-(4-oxo-2-thioxo-thiazolidin-5-ylidenemethyl)-4H-1,4-benzoxazin-3-one]
7.70	CN(C)S(=O)(=O)c1cccc(CN2C(=O)COc3ccc(C=C4SC(=O)NC4=O)cc32)c1 [Example 256, 3-[6-(2,4-Dioxo-thiazolidin-5-ylidenemethyl)-3-oxo-2,3-dihydro-1,4-benzoxazin-4-ylmethyl]-N,N-dimethyl-benzenesulfonamide]
7.55	O=C1NC(=S)SC1=Cc1ccc2c(c1)N(Cc1cccc(S(=O)(=O)N3CCOCC3)c1)C(=O)CO2 [Example 257, 4-[3-(Morpholine-4-sulfonyl)-benzyl]-6-(4-oxo-2-thioxo-thiazolidin-5-ylidenemethyl)-4H-1,4-benzoxazin-3-one]
7.89	O=C1NC(=S)SC1=Cc1ccc2c(c1)N(Cc1ccc(S(=O)(=O)N3CCOCC3)cc1)C(=O)CO2 [Example 259, 4-[4-(Morpholine-4-sulfonyl)-benzyl]-6-(4-oxo-2-thioxo-thiazolidin-5-ylidenemethyl)-4H-1,4-benzoxazin-3-one]
8.40	COc1c(CN2C(=O)COc3ccc(C=C4SC(=S)NC4=O)cc32)cccc1C(C)C [Example 260, 4-(3-Isopropyl-2-methoxy-benzyl)-6-(4-oxo-2-thioxo-thiazolidin-5-ylidenemethyl)-4H-1,4-benzoxazin-3-one]
7.72	CN(C)S(=O)(=O)c1cccc(CN2C(=O)COc3ccc(C=C4SC(=S)NC4=O)cc32)c1 [Example 262, N,N-Dimethyl-3-[3-oxo-6-(4-oxo-2-thioxo-thiazolidin-5-ylidenemethyl)-2,3-dihydro-1,4-benzoxazin-4-ylmethyl]-benzenesulfonamide]
7.74	CC(C)(C)c1cccc(CN2C(=O)COc3ccc(C=C4SC(=S)NC4=O)cc32)c1 [Example 263, 4-(3-tert-Butyl-benzyl)-6-(4-oxo-2-thioxo-thiazolidin-5-ylidenemethyl)-4H-1,4-benzoxazin-3-one]
8.40	CN(C)S(=O)(=O)c1ccc(CN2C(=O)COc3ccc(/C=C4\SC(=S)NC4=O)cc32)cc1 [Example 264, N,N-Dimethyl-4-{3-oxo-6-[4-oxo-2-thioxo-thiazolidin-(5Z)-ylidenemethyl]-2,3-dihydro-benzo[1,4]oxazin-4-ylmethyl}-benzenesulfonamide]
7.74	CS(=O)(=O)c1cccc(CN2C(=O)COc3ccc(/C=C4\SC(=O)NC4=O)cc32)c1 [Example 265, 5-[1-[4-(3-Methanesulfonyl-benzyl)-3-oxo-3,4-dihydro-2H-benzo[1,4]oxazin-6-yl]-meth-(Z)-ylidene]-thiazolidine-2,4-dione]
7.85	CS(=O)(=O)c1cccc(CN2C(=O)COc3c(F)cc(C=C4SC(=S)NC4=O)cc32)c1 [Example 269, 8-Fluoro-4-(3-methanesulfonyl-benzyl)-6-(4-oxo-2-thioxo-thiazolidin-5-ylidenemethyl)-4H-benzo[1,4]oxazin-3-one]
7.96	CS(=O)(=O)c1cccc(CN2C(=O)COc3ccc(/C=C4\SC(=S)NC4=O)cc32)c1 [Example 270, 4-(3-Methanesulfonyl-benzyl)-6-[4-oxo-2-thioxo-thiazolidin-(5Z)-ylidenemethyl]-4H-benzo[1,4]oxazin-3-one]
7.15	O=C1NC(=O)/C(=C/c2ccc3c(c2)N(Cc2cc(C(F)(F)F)cc(C(F)(F)F)c2)C(=O)CO3)S1 [Example 272, 5-[1-[4-(3,5-Bis-trifluoromethyl-benzyl)-3-oxo-3,4-dihydro-2H-benzo[1,4]oxazin-6-yl]-meth-(Z)-ylidene]-thiazolidine-2,4-dione]
